Measured values published in the supplement of paper PMC10307832.

What was measured:
Assay in all cases: relative viability (nuclei count vs DMSO), 5 days (fraction); higher = more cells survive
NCI-H2087 = system: NCI-H2087
In short: (§1)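 Lung cancer cell lines were pin-tool dosed in 1536-well plates on the day after seeding, with either a lone drug or a fixed anchor-drug dose plus five library-drug doses (not always all listed) in √10 steps. Nuclei were counted on 4× images after 5 days. Relative viability is the ratio of treated-well to vehicle-well nuclei counts, with each value a median of duplicate plates.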

NCI-H1651 = system: NCI-H1651
In short: as §1

ChaGo-K-1 = system: ChaGo-K-1
In short: as §1

LCLC-97TM1 = system: LCLC-97TM1
In short: as §1

BEN = system: BEN
In short: as §1

LXF-289 = system: LXF-289
In short: as §1

LU99A = system: LU99A
In short: as §1

UMC-11 = system: UMC-11
In short: as §1

H3255 = system: H3255
In short: as §1

SK-MES-1 = system: SK-MES-1
In short: as §1

LC-2-ad = system: LC-2-ad
In short: as §1

PC-3 [JPC-3] = system: PC-3 [JPC-3]
In short: as §1

NCI-H838 = system: NCI-H838
In short: as §1

NCI-H650 = system: NCI-H650
In short: as §1

NCI-H322M = system: NCI-H322M
In short: as §1

NCI-H1666 = system: NCI-H1666
In short: as §1

NCI-H1944 = system: NCI-H1944
In short: as §1

HCC-78 = system: HCC-78
In short: as §1

HCC-15 = system: HCC-15
In short: as §1

NCI-H358 = system: NCI-H358
In short: as §1

LK-2 = system: LK-2
In short: as §1

NCI-H2342 = system: NCI-H2342
In short: as §1

NCI-H661 = system: NCI-H661
In short: as §1

## COc1cc(N2CCC(C(N)=O)CC2)ccc1Nc1nc(N)c(Cl)c(Nc2ccccc2S(=O)(=O)C(C)C)n1 [HG-5-88-01] + CC(=O)c1c(C)c2cnc(Nc3ccc(N4CCNCC4)cn3)nc2n(C2CCCC2)c1=O [Palbociclib] (partner 0.5 µM)
NCI-H2087; first compound 0.04 µM
  relative viability: 0.242
NCI-H2087; first compound 0.1265 µM
  relative viability: 0.246
NCI-H2087; first compound 0.4 µM
  relative viability: 0.219
NCI-H2087; first compound 1.265 µM
  relative viability: 0.207
NCI-H2087; first compound 4 µM
  relative viability: 0.244
NCI-H1651; first compound 0.04 µM
  relative viability: 0.571
NCI-H1651; first compound 0.1265 µM
  relative viability: 0.51
NCI-H1651; first compound 0.4 µM
  relative viability: 0.517
NCI-H1651; first compound 1.265 µM
  relative viability: 0.458
NCI-H1651; first compound 4 µM
  relative viability: 0.616
ChaGo-K-1; first compound 0.04 µM
  relative viability: 0.931
ChaGo-K-1; first compound 0.1265 µM
  relative viability: 0.813
ChaGo-K-1; first compound 0.4 µM
  relative viability: 0.881
ChaGo-K-1; first compound 1.265 µM
  relative viability: 0.959
ChaGo-K-1; first compound 4 µM
  relative viability: 0.881
LCLC-97TM1; first compound 0.04 µM
  relative viability: 0.214
LCLC-97TM1; first compound 0.1265 µM
  relative viability: 0.198
LCLC-97TM1; first compound 0.4 µM
  relative viability: 0.197
LCLC-97TM1; first compound 1.265 µM
  relative viability: 0.194
LCLC-97TM1; first compound 4 µM
  relative viability: 0.118
BEN; first compound 0.04 µM
  relative viability: 0.451
BEN; first compound 0.1265 µM
  relative viability: 0.461
BEN; first compound 0.4 µM
  relative viability: 0.409
BEN; first compound 1.265 µM
  relative viability: 0.465
BEN; first compound 4 µM
  relative viability: 0.411
LXF-289; first compound 0.04 µM
  relative viability: 0.583
LXF-289; first compound 0.1265 µM
  relative viability: 0.628
LXF-289; first compound 0.4 µM
  relative viability: 0.572
LXF-289; first compound 1.265 µM
  relative viability: 0.59
LXF-289; first compound 4 µM
  relative viability: 0.636
LU99A; first compound 0.04 µM
  relative viability: 0.434
LU99A; first compound 0.1265 µM
  relative viability: 0.39
LU99A; first compound 0.4 µM
  relative viability: 0.384
LU99A; first compound 1.265 µM
  relative viability: 0.32
LU99A; first compound 4 µM
  relative viability: 0.305
UMC-11; first compound 0.04 µM
  relative viability: 0.321
UMC-11; first compound 0.1265 µM
  relative viability: 0.369
UMC-11; first compound 0.4 µM
  relative viability: 0.297
UMC-11; first compound 1.265 µM
  relative viability: 0.348
UMC-11; first compound 4 µM
  relative viability: 0.308
H3255; first compound 0.04 µM
  relative viability: 0.291
H3255; first compound 0.1265 µM
  relative viability: 0.312
H3255; first compound 0.4 µM
  relative viability: 0.309
H3255; first compound 4 µM
  relative viability: 0.277
SK-MES-1; first compound 0.04 µM
  relative viability: 0.319
SK-MES-1; first compound 0.1265 µM
  relative viability: 0.273
SK-MES-1; first compound 0.4 µM
  relative viability: 0.27
SK-MES-1; first compound 1.265 µM
  relative viability: 0.304
SK-MES-1; first compound 4 µM
  relative viability: 0.247
LC-2-ad; first compound 0.04 µM
  relative viability: 0.471
LC-2-ad; first compound 0.1265 µM
  relative viability: 0.431
LC-2-ad; first compound 0.4 µM
  relative viability: 0.449
LC-2-ad; first compound 1.265 µM
  relative viability: 0.474
LC-2-ad; first compound 4 µM
  relative viability: 0.516
PC-3 [JPC-3]; first compound 0.04 µM
  relative viability: 0.485
PC-3 [JPC-3]; first compound 0.1265 µM
  relative viability: 0.586
PC-3 [JPC-3]; first compound 0.4 µM
  relative viability: 0.512
PC-3 [JPC-3]; first compound 1.265 µM
  relative viability: 0.426
PC-3 [JPC-3]; first compound 4 µM
  relative viability: 0.422
NCI-H838; first compound 0.04 µM
  relative viability: 0.189
NCI-H838; first compound 0.1265 µM
  relative viability: 0.207
NCI-H838; first compound 0.4 µM
  relative viability: 0.173
NCI-H838; first compound 1.265 µM
  relative viability: 0.177
NCI-H838; first compound 4 µM
  relative viability: 0.168
NCI-H650; first compound 0.04 µM
  relative viability: 0.398
NCI-H650; first compound 0.1265 µM
  relative viability: 0.341
NCI-H650; first compound 0.4 µM
  relative viability: 0.338
NCI-H650; first compound 1.265 µM
  relative viability: 0.303
NCI-H650; first compound 4 µM
  relative viability: 0.296
NCI-H322M; first compound 0.04 µM
  relative viability: 0.532
NCI-H322M; first compound 0.1265 µM
  relative viability: 0.492
NCI-H322M; first compound 0.4 µM
  relative viability: 0.477
NCI-H322M; first compound 1.265 µM
  relative viability: 0.337
NCI-H322M; first compound 4 µM
  relative viability: 0.443
NCI-H1666; first compound 0.04 µM
  relative viability: 0.636
NCI-H1666; first compound 0.1265 µM
  relative viability: 0.663
NCI-H1666; first compound 0.4 µM
  relative viability: 0.623
NCI-H1666; first compound 1.265 µM
  relative viability: 0.661
NCI-H1666; first compound 4 µM
  relative viability: 0.623
NCI-H1944; first compound 0.04 µM
  relative viability: 0.37
NCI-H1944; first compound 0.1265 µM
  relative viability: 0.351
NCI-H1944; first compound 0.4 µM
  relative viability: 0.36
NCI-H1944; first compound 1.265 µM
  relative viability: 0.322
NCI-H1944; first compound 4 µM
  relative viability: 0.31
HCC-78; first compound 0.04 µM
  relative viability: 0.465
HCC-78; first compound 0.1265 µM
  relative viability: 0.424
HCC-78; first compound 0.4 µM
  relative viability: 0.497
HCC-78; first compound 1.265 µM
  relative viability: 0.421
HCC-78; first compound 4 µM
  relative viability: 0.44
HCC-15; first compound 0.04 µM
  relative viability: 0.772
HCC-15; first compound 0.1265 µM
  relative viability: 0.792
HCC-15; first compound 0.4 µM
  relative viability: 0.643
HCC-15; first compound 1.265 µM
  relative viability: 0.724
HCC-15; first compound 4 µM
  relative viability: 0.432
NCI-H358; first compound 0.04 µM
  relative viability: 0.139
NCI-H358; first compound 0.1265 µM
  relative viability: 0.131
NCI-H358; first compound 0.4 µM
  relative viability: 0.118
NCI-H358; first compound 1.265 µM
  relative viability: 0.0962
NCI-H358; first compound 4 µM
  relative viability: 0.0785
LK-2; first compound 0.04 µM
  relative viability: 0.772
LK-2; first compound 0.1265 µM
  relative viability: 0.582
LK-2; first compound 0.4 µM
  relative viability: 0.71
LK-2; first compound 4 µM
  relative viability: 0.519
NCI-H2342; first compound 0.04 µM
  relative viability: 0.557
NCI-H2342; first compound 0.1265 µM
  relative viability: 0.54
NCI-H2342; first compound 0.4 µM
  relative viability: 0.471
NCI-H2342; first compound 4 µM
  relative viability: 0.539
NCI-H661; first compound 0.04 µM
  relative viability: 0.384
NCI-H661; first compound 0.1265 µM
  relative viability: 0.417
NCI-H661; first compound 0.4 µM
  relative viability: 0.416
NCI-H661; first compound 1.265 µM
  relative viability: 0.359
NCI-H661; first compound 4 µM
  relative viability: 0.426
